# Assay results from US8703783B2, “Purinone derivatives as HM74A agonists” (Incyte Corporation, priority 2006, dated 2014).
# Columns and labels:
# [1] = target: T1, human HM74a (Homo sapiens, UniProt Q8TDS4); experiment: cAMP assay; assay type: cell-based; set-up: expressed in transfected cells; details: CHO cells stably transfected with human HM74a; 5 μM forskolin; inhibition relative to DMSO controls
# Experimental: CHO cells stably transfected with human HM74a were seeded at 7,500 cells/well in a 96-well plate in HAMS F12 medium with 10% FBS. The plate was incubated overnight at 37° C. and 5% CO2. The test compounds were prepared in a stimulation buffer containing 1×HANKS, 20 mM HEPES, 5 μM forskolin, and 0.25 mM IBMX. The media from the cell plate was removed before adding 30 μL of the test compounds. After 30 minute incubation at 37° C. and 5% CO2, the cAMP level was assayed using HitHunter cAMP XS assay kit (DiscoverX, CA). IC50 determinations were based on compound inhibition relative to DMSO controls.
# [2] = target: T1, human HM74a; experiment: GTPγS recruitment assay; assay type: biochemical; set-up: expressed in transfected cells; host or cells: HEK293 (transient transfection; membranes); details: membranes of HEK293 cells transfected with human HM74a and Gα0; 35S GTPγS
# Experimental: Membranes were prepared from HEK293 cells transiently transfected with human HM74a and Gα0 protein. Assays were performed in 384-well format in a volume of 50 μL per assay point. Serial dilutions of compounds were prepared in the assay buffer (20 mM HEPES pH. 7.4, 100 mM NaCl, 10 mM MgCl2, 10 mg/L saponin and 10 μM GDP) and mixed with membranes (2 μg per assay point) and ^35S GTPγS (Amersham, 0.3 nM) in the assay buffer. The mixtures were incubated at room temperature for 30 mM and wheat germ agglutinin SPA beads (Amersham) (0.2 mg per assay point) in the assay buffer were added. After […] incubation with agitation, plates were centrifuged at 1500 g for 5 mM and bound ^35S GTPγS was determined by counting on a TopCount scintillation counter. […] For example, the compound of Example 1 has an EC50 of 80 nM in this assay.
# [3] = system: mature adipocytes; experiment: Adipocyte lipolysis assay; assay type: cell-based; details: glycerol in supernatant after overnight culture with IBMX (100 μM), relative to DMSO controls
# Experimental: Preadipocytes purchased from Zen Bio were plated at 8.7×10 ^4 cells/well in 96-well plates, differentiated for 14 days and mature adipocytes assayed during days 15 through 21. Adipocyte maturation is assessed by the presence of rounded cells with large lipid droplets in the cytoplasm. Following maturation, cells were washed and incubated overnight with IBMX (100 μM) and various concentrations of compound diluted in assay buffer containing a final DMSO concentration of 0.1%. After overnight culture, the glycerol concentration in the supernatants was determined with the Lipolysis Assay Kit purchased from Zen-Bio. Absorbance at 540 nm is directly proportional to the glycerol concentration in the sample. IC50 determinations were based on compound inhibition relative to DMSO controls.
# [4] = cited from earlier work
# T1 sequence (Q8TDS4 whole entry): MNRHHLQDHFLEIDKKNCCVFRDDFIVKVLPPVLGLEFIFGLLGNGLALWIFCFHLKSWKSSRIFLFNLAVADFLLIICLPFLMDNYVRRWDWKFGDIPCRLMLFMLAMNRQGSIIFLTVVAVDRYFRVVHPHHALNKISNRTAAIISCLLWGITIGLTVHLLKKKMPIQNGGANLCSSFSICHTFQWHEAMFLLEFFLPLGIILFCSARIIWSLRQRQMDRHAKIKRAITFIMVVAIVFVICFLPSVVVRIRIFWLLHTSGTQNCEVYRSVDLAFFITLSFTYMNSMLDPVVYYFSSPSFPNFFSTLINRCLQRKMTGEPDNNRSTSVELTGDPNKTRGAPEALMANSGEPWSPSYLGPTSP
smiles,measurement,setting,value
"CCCCCn1c2nc(C(F)(F)F)[nH]c2c(=O)n2c(C)nnc12 [Example 1, 3-methyl-9-pentyl-7-(trifluoromethyl)-6,9-dihydro-5H-[1,2,4]triazolo[4,3-a]purin-5-one]",IC50,[1],20 nM
same,EC50,[2],80 nM
"CCCCCn1c2nc(Br)[nH]c2c(=O)n2c(CCc3nc(Cc4ccncc4)no3)nnc12 [Example 77, 7-bromo-9-pentyl-3-{2-[3-(pyridine-4-ylmethyl)-1,2,4-oxadiazol-5-yl]ethyl}-6,9-dihydro-5H-[1,2,4]triazolo[4,3-a]purin-5-one]",IC50,[3],37 nM
O=C1[C@H](CC[C@H](O)c2ccc(F)cc2)[C@@H](c2ccc(O)cc2)N1c1ccc(F)cc1 [Ezetimibe],maximal LDL reductions,[4]; co-formulated with a statin,exceed 60%
same,lowers LDL,[4]; monotherapy,20%
"O=C(O)c1cccnc1 [Nicotinic acid, nicotinic acid]",lowering circulating plasma LDL,"[4]; human, in vivo",16%
same,lowering triglycerides,"[4]; human, in vivo",38%
same,raising HDL levels,"[4]; human, in vivo",20-30%
